# In patent US9770452B2, “Quinoxaline derivatives as GPR6 modulators” (Takeda Pharmaceutical Company Limited, priority 2012, dated 2017):
# pIC50: −log10 of the molar value.
# How the values were obtained:
# GPR6 receptor = target: T1, GPR6 receptor (Homo sapiens, UniProt P46095); assay: Inhibition of cAMP Activity of GPR6 In Vitro Assay (CHO-K1 cells, HTRF cAMP); format: cell-based; conditions: compounds of Compound Table 1; inhibition of constitutive cAMP activity of GPR6 expressed in CHO-K1 cells; approximate IC50; read-out: IC50
# T1 construct: expressed in transfected cells
# How it was run: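 CHO-K1 cells with doxycycline-induced (1 μg/ml, 20 h) GPR6 treated with compounds 45 min at 37 °C in Ringer's buffer (pH 7.4) with 0.5% fatty acid free BSA. Constitutive cAMP measured by Lance HTRF Ultra cAMP; IC50 from four-parameter logistic fit.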
# [1] = system: haloperidol-induced catalepsy; assay: Haloperidol-Induced Catalepsy, in vivo rodent Parkinson's disease model (mice); conditions: mouse; for % reversal 30 min: 30 min after dosing with haloperidol; for % reversal 120 min: 120 min after dosing with haloperidol
# Source text: (§1) Haloperidol-Induced Catalepsy—In Vivo Rodent Parkinson's Disease Model
# The motor symptoms of Parkinson's disease include akinesia, bradykinesia, rigidity, tremor and postural abnormalities and are associated with the loss of nigral dopaminergic cells and a decline in striatal dopamine levels. Administration of haloperidol to rodents leads to a transient parkinsonian-like state that is reversed by the administration of L-Dopa (Duty, S.; Jenner, P. Br. J. Pharmacol. (2011), 164, 1357-1391) and other drugs that have been clinically validated for the treatment of Parkinson's disease. Haloperidol antagonizes dopamine D2 and, to a lesser extent, D1 receptors in medium spiny neurons that comprise the indirect and direct pathways of the motor circuit respectively. The resultant block of striatal dopamine transmission results in abnormal downstream firing within the basal ganglia circuits that is manifest as symptoms of muscle rigidity and catalepsy. Catalepsy has been postulated to reflect the clinical features of Parkinson's disease, whereby patients experience an inability of to initiate movements.
# Male Sprague-Dawley rats (Charles River, Calco, Italy) weighing 175-200 g are used. Alternatively, male C57Bl6 mice weighing 25-35 g were used. The cataleptic state was induced by the subcutaneous administration of the dopamine receptor antagonist haloperidol (0.3 mg/kg, sc), 90 min before testing the animals on the vertical grid test. For this test, the rats or mice were placed on the wire mesh cover of a 25 cm×43 cm plexiglass cage placed at an angle of about 70 degrees with the bench table. The subject was placed on the grid with all four legs abducted and extended (“frog posture”). The use of such an unnatural posture is essential for the specificity of this test for catalepsy. The time span from placement of the paws until the first complete removal of one paw (descent latency) was measured maximally for 120 sec for rats. For mice, the front paws of a mouse was placed on a horizontal metal bar raised 2″ above a Plexiglas platform and time was recorded for up to 30 seconds per trial. The test ended when the animal's front paws returned to the platform or after 30 seconds. The test was repeated three times and the average of the three trials was reported as the intensity index of catalepsy.
# Catalepsy was measured 30 min, 120 min, and/or 240 min after dosing the subjects a 0.3 mg/kg i.p. dose of haloperidol along with the GPR6 modulator test compound. Test compound plasma and brain levels were determined by collected tissue samples at the end of the experiment, which was either at the 120 or 240 min time point. A representative number of compounds of the invention were administered in a dose range from 0.1 to 100 mg/kg i.p, sc or po in conjunction with haloperidol. The A2a antagonist KW6002 (istradefylline) was dosed at 0.6 mg/kg i.p. as a positive control. The compounds of the invention produced reversal of haloperidol-induced catalepsy. The results of a representative no. of compounds of this invention in this assay are disclosed in the table below.
# [2] = system: haloperidol-induced catalepsy; assay: Haloperidol-Induced Catalepsy, in vivo rodent Parkinson's disease model (rats); conditions: rat, 10 mpk sc
# Source text: as §1
# The motor symptoms of Parkinson's disease include akinesia, bradykinesia, rigidity, tremor and postural abnormalities and are associated with the loss of nigral dopaminergic cells and a decline in striatal dopamine levels. Administration of haloperidol to rodents leads to a transient parkinsonian-like state that is reversed by the administration of L-Dopa (Duty, S.; Jenner, P. Br. J. Pharmacol. (2011), 164, 1357-1391) and other drugs that have been clinically validated for the treatment of Parkinson's disease. […]
# Male Sprague-Dawley rats (Charles River, Calco, Italy) weighing 175-200 g are used. […] The time span from placement of the paws until the first complete removal of one paw (descent latency) was measured maximally for 120 sec for rats. For mice, the front paws of a mouse was placed on a horizontal metal bar raised 2″ above a Plexiglas platform and time was recorded for up to 30 seconds per trial. […]
# Catalepsy was measured 30 min, 120 min, and/or 240 min after dosing the subjects a 0.3 mg/kg i.p. dose of haloperidol along with the GPR6 modulator test compound. Test compound plasma and brain levels were determined by collected tissue samples at the end of the experiment, which was either at the 120 or 240 min time point. […]
# T1 sequence (P46095 whole entry): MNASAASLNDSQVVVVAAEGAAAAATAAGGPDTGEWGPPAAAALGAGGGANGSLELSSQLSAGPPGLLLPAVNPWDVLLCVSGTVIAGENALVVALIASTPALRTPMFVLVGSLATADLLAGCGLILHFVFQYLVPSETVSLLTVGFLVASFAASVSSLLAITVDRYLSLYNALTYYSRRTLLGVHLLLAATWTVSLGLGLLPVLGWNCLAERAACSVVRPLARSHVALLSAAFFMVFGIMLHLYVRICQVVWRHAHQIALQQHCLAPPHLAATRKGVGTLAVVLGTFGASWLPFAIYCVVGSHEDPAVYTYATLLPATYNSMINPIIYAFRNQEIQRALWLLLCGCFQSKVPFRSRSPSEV
Molecule,pIC50 (GPR6 receptor),% reversal 30 min ([1]; 10 mpk ip),% reversal 120 min ([1]; 10 mpk ip),% reversal 30 min ([1]; 30 mpk ip),% reversal 120 min ([1]; 30 mpk ip),% reversal 30 min ([2]; 30 min after dosing with haloperidol),% reversal 120 min ([2]; 120 min after dosing with haloperidol)
"N#Cc1ccc2nc(NC3CC3)c(N3CCN(Cc4cc(Cl)ccc4Cl)CC3)nc2c1 [Cpd 59, 2-(cyclopropylamino)-3-(4-(2,5-dichlorobenzyl)piperazin-1-yl) quinoxaline-6-carbonitrile]",6.60,42%,18.8%,27.4%,15.7%,,
"Clc1cccc(CN2CCN(c3nc4ccccc4nc3Nc3cccnc3)CC2)c1.O=C(O)C(F)(F)F [Cpd 53, 3-(4-(3-chlorobenzyl)piperazin-1-yl)-N-(pyridin-3-yl)quinoxalin-2-amine, 2,2,2-trifluoroacetic acid salt]",5.92,,,13.6%,15.4%,,
"3-(4-(2,4-difluorobenzyl)piperidin-1-yl)-2-(pyridin-3-ylamino)quinoxaline-6-carbonitrile, 2,2,2-trifluoroacetic acid salt [Cpd 415]",7.19,,,,,36.9%,25.1%
"Clc1cccc(Cl)c1CN1CCN(c2nc3ccccc3nc2NC2CC2)CC1.O=C(O)C(F)(F)F [Cpd 50, N-cyclopropyl-3-(4-(2,6-dichlorobenzyl)piperazin-1-yl)quinoxalin-2-amine, 2,2,2-trifluoroacetic acid salt]",,,,40.4%,29.6%,,
"Clc1ccc(Cl)c(CN2CCN(c3nc4ccccc4nc3NC3CC3)CC2)c1.O=C(O)C(F)(F)F [Cpd 33, N-cyclopropyl-3-(4-(2,5-dichlorobenzyl)piperazin-1-yl)quinoxalin-2-amine, 2,2,2-trifluoroacetic acid salt]",5.67,,,48.1%,41.4%,,
